The values that follow come from patent US20190289874A1, “STAIN PREVENTION FORMULATIONS” (WM. WRIGLEY JR. COMPANY, priority 2016, published 2019).

The nature of this assay: In vitro bovine teeth test (stain prevention solutions). To be noted: for concentration showing a significant visible whitening effect: % by weight of solution, bovine teeth test; for stain-prevention effect: bovine teeth tests, dose response of solutions of Table 1 (FIG. 1), change in whitening index. How it is done: HAD assay and the bovine teeth test were employed by methods generally known in the art for screening stain prevention actives. HAD assays generally included pre-coating a HAD disc with saliva for 1-2 hours and subsequently exposing the disc to a staining broth containing tea, coffee, gastric mucin, trypticase soy broth and saliva for four days. Each day, the disc was moved from staining broth to a solution with a stain prevention formulation three times. The process was repeated for four days. The disc was dried and the color was measured. […] The color of the bovine teeth was measured before and after staining.
To evaluate stain prevention effect, the whitening index of the teeth before and after staining and treatment was calculated. The white index, W, is defined as:
W*=√{square root over ((L*−1.00)^2+(a*)^2+(b*)^2)}
A pure white substance will have W value of […]. The higher the value of ΔW, the whiter the sample would be.
In total, 4-6 HA discs or bovine teeth were tested for each compound or combination. The values were averaged.

Consider `OO` [hydrogen peroxide, reference compound], for which the “concentration showing a significant visible whitening effect” value was no less than 0.25%.

Take `O=P([O-])([O-])OP(=O)([O-])[O-].[Na+].[Na+].[Na+].[Na+]` [SPP, sodium pyrophosphate]: the stain-prevention effect entry is listed as “very effective”.

Consider `NC(N)=O` [Urea, urea], for which the stain-prevention effect entry is given as “very effective”.

Turning to `CCCCCCCCCCCC(=O)N[C@@H](CCCN=C(N)N)C(=O)OCC` [LAE, lauroyl arginine ethyl ether], the “concentration showing a significant visible whitening effect” value was no less than 0.05% and the stain-prevention effect result is “very effective”.

Regarding `O=P(O)(O)OP(=O)(O)OP(=O)(O)O` [STP, sodium tripolyphosphate], the “concentration showing a significant visible whitening effect” value is recorded as no less than 0.1% and the stain-prevention effect result is on record as “very effective”. Also, the “relative effectiveness for stain prevention” value (comparison between compounds or combinations) is “more effective”.
